In assay [1] the test system is Caenorhabditis elegans. Put plainly: C. elegans L1 larvae dose-response, 5 day visual viability score (Examples 2 and 7). It counts as in vivo. More on the design: key: Dead: only stiff L1s (no movement); Dead (L4): worms are dead, but at a later larval stage; majority of worms are L1 (based on size); majority of worms are L2 (based on size); majority of worms are L3 (based on size); majority of worms are L4 (based on size); AD: majority of worms are adult; #AD: 5 adult worms or less; B!: sterile (0-25 progeny); B: low broodsize (25-100 progeny); ˜B: moderate broodsize (100-250 progeny); <: reduced broodsize (250-500 progeny); OK: no effect (˜1000+ progeny). Particulars: day 5, Table 3; for 5 Day Visual Score V6: 0.3 μM (procedure of Example 2); for 5 Day Visual Score V5: 0.9 μM (procedure of Example 2); for 5 Day Visual Score V4: 2.6 μM (procedure of Example 2); for 5 Day Visual Score V3: 7.8 μM (procedure of Example 2); for 5 Day Visual Score V2: 23.3 μM (procedure of Example 2); for 5 Day Visual Score V1: 70 μM (procedure of Example 2). How it is done: Caenorhabditis elegans adults were grown on Nematode Growth Medium (NGM) until they produced eggs, then the adults were removed.
The eggs were allowed to hatch, and the L1 larvae collected. See The Neniatode Caenorhabditis elegans (1988) Cold Spring Harbor Laboratory Press. Using a Matrix Programmable Pipette, the L1s were distributed into 96-well tissue culture plates, 20 L1 in 50 μl NGM per well. Antibiotic/Antimyotic was added to each well, and 1% by weight E. coli strain HB101. The subject anthelmintic compounds were stored at 5 mM in 100% DMSO. 0.7 μl of compounds 1-31 were added to the left-most column of wells to yield a final concentration of 70 μM in 1.4% DMSO, with 1.4% DMSO only as the control. The compounds were then subjected to 5 more 3-fold dilutions from left to right to yield 6 column concentrations of 70 μM, 23.3 μM, 7.8 μM, 2.6 μM, 0.9 μM, and 0.3 μM. Plates were stored in air-tight Rubbermaid plastic boxes at 20° C. The nematodes had cleared all control wells by day 4, and nematode viability was scored by visual examination under a 100× dissecting microscope on day 5. A visual viability scoring system was used as follows:
If several classes of worms exist in a well, then all classes are scored. If adults are present, then the brood score is also recorded. Thus, “L1/L2” would mean a mixture of L1's and L2's are present in the well. “L4/#AD/B” would mean that a mixture of L4's and adults are resent in the well. The “#AD” would mean that there are 6 or less adults, and the “B” would mean that there were 100 progeny or less.
Column VI has a compound concentration of 70 μM with sequential 3-fold dilutions reported in columns V2, V3, V4, V5, and V6, respectively, such that the V6 concentration was 0.3 μM.
(§1) The nematicidal activity of anthelmintic Compositions 48-118 were determined in accordance with the procedure outlined in Example 2.

Assay [2] deals with Caenorhabditis elegans. The experiment in a line: HTS runs (initial and follow-up): mOD, % Run and visual score (Table 3). It counts as in vivo. More on the design: key to Initial HTS Run Visual Score / Follow-up HTS Run Visual Score: Dead: only stiff L1s (no movement); Dead (L4): worms are dead, but at a later larval stage; majority of worms are L1 (based on size); majority of worms are L2 (based on size); majority of worms are L3 (based on size); majority of worms are L4 (based on size); AD: majority of worms are adult; #AD: 5 adult worms or less; B!: sterile (0-25 progeny); B: low broodsize (25-100 progeny); ˜B: moderate broodsize (100-250 progeny); <: reduced broodsize (250-500 progeny); OK: no effect (˜1000+ progeny). How it is done: as §1

As for `Fc1ccc(Oc2cc(N3CCc4ccccc4C3)ncn2)cc1` [AKC 345], in assay [1], the “5 Day Visual Score V6” value is “OK (no effect (˜1000+ progeny))”, the “5 Day Visual Score V5” value was “OK (no effect (˜1000+ progeny))”, the “5 Day Visual Score V4” value was “OK (no effect (˜1000+ progeny))” and the “5 Day Visual Score V3” value is recorded as “L4”. Also, in assay [1], the “5 Day Visual Score V2” value is “L1” and the “5 Day Visual Score V1” value is “L1”. In assay [2], the “Follow-up HTS Run % Run” value turned out to be 114%, the “Follow-up HTS Run mOD” value was determined as 154 mOD, the “Initial HTS Run % Run” value turned out to be 135% and the “Initial HTS Run Visual Score” value was “L1”. Besides, the “Initial HTS Run mOD” value in assay [2] came out at 264 mOD.
Turning to `CCC(C)Nc1cc(Oc2ccc3oc4ccccc4c3c2)ncn1` (stereo not drawn) [AKC 349], in assay [1], the “5 Day Visual Score V6” value is recorded as “OK (no effect (˜1000+ progeny))”, the “5 Day Visual Score V5” value was “OK (no effect (˜1000+ progeny))”, the “5 Day Visual Score V4” value is listed as “OK (no effect (˜1000+ progeny))” and the “5 Day Visual Score V3” value is reported as “#AD/˜B”. Further, in assay [1], the “5 Day Visual Score V2” value is reported as “OK (no effect (˜1000+ progeny))”. Besides, in assay [2], the “Follow-up HTS Run % Run” value is recorded as 103%, the “Follow-up HTS Run Visual Score” value is listed as “B (low broodsize (25-100 progeny))”, the “Follow-up HTS Run mOD” value worked out at 139 mOD and the “Initial HTS Run % Run” value was 127%. Further, in assay [2], the “Initial HTS Run Visual Score” value was found to be 2AD/B! and the “Initial HTS Run mOD” value stood at 247 mOD.
Turning to `CCC(NC(=O)Nc1ccc(NC(=O)C2CCCO2)cc1)c1cccc(S(N)(=O)=O)c1` (stereo not drawn) [AKC 405], in assay [1], the “5 Day Visual Score V6” value was “OK (no effect (˜1000+ progeny))”, the “5 Day Visual Score V5” value is on record as “OK (no effect (˜1000+ progeny))”, the “5 Day Visual Score V4” value is “OK (no effect (˜1000+ progeny))” and the “5 Day Visual Score V3” value is “#AD/˜B”. Moreover, in assay [1], the “5 Day Visual Score V2” value was “L1” and the “5 Day Visual Score V1” value was “L1”. Moreover, in assay [2], the “Follow-up HTS Run % Run” value stood at 120%, the “Follow-up HTS Run Visual Score” value was found to be 1AD/B!, the “Follow-up HTS Run mOD” value was determined as 162 mOD and the “Initial HTS Run % Run” value is reported as 141%. Also, in assay [2], the “Initial HTS Run Visual Score” value is 4AD/B and the “Initial HTS Run mOD” value came out at 274 mOD.
For `Fc1ccc(Oc2cc(NCc3ccccc3F)ncn2)cc1` [AKC 367], in assay [1], the “5 Day Visual Score V6” value is on record as “OK (no effect (˜1000+ progeny))”, the “5 Day Visual Score V5” value is “OK (no effect (˜1000+ progeny))”, the “5 Day Visual Score V4” value is listed as “< (reduced broodsize (250-500 progeny))” and the “5 Day Visual Score V3” value is listed as “< (reduced broodsize (250-500 progeny))”. Besides, in assay [1], the “5 Day Visual Score V2” value is on record as “< (reduced broodsize (250-500 progeny))” and the “5 Day Visual Score V1” value is on record as “L1”. Besides, in assay [2], the “Follow-up HTS Run % Run” value was found to be 91%, the “Follow-up HTS Run Visual Score” value was “B (low broodsize (25-100 progeny))”, the “Follow-up HTS Run mOD” value is on record as 123 mOD and the “Initial HTS Run % Run” value amounted to 123%. In assay [2], the “Initial HTS Run Visual Score” value amounted to 2AD/B and the “Initial HTS Run mOD” value is reported as 239 mOD.
`CC(C)(C)OC(=O)N1CCN(c2cc(Oc3ccccc3Cl)ncn2)CC1` [AKC 374]: in assay [1], the “5 Day Visual Score V6” value is on record as “OK (no effect (˜1000+ progeny))”, the “5 Day Visual Score V5” value was “OK (no effect (˜1000+ progeny))”, the “5 Day Visual Score V4” value is listed as “OK (no effect (˜1000+ progeny))” and the “5 Day Visual Score V3” value is “OK (no effect (˜1000+ progeny))”. The “5 Day Visual Score V1” value in assay [1] is “Dead(L2/L3)”. Further, in assay [2], the “Follow-up HTS Run % Run” value is reported as 114%, the “Follow-up HTS Run mOD” value worked out at 154 mOD, the “Initial HTS Run % Run” value is recorded as 139% and the “Initial HTS Run Visual Score” value is given as “L3-Dying”. Also, in assay [2], the “Initial HTS Run mOD” value came out at 271 mOD.
Turning to `CCCCCCCCCCCCNc1cc(Oc2ccccc2OC)ncn1` [AKC 398], in assay [1], the “5 Day Visual Score V6” value was “OK (no effect (˜1000+ progeny))”, the “5 Day Visual Score V5” value is reported as “< (reduced broodsize (250-500 progeny))”, the “5 Day Visual Score V4” value is “OK (no effect (˜1000+ progeny))” and the “5 Day Visual Score V3” value is “#AD/˜B”. In assay [1], the “5 Day Visual Score V2” value is listed as “Dead” and the “5 Day Visual Score V1” value was “Dead”. Besides, in assay [2], the “Follow-up HTS Run % Run” value was found to be 93%, the “Follow-up HTS Run Visual Score” value is given as “Dead”, the “Follow-up HTS Run mOD” value is recorded as 126 mOD and the “Initial HTS Run % Run” value is 118%. For the same compound, in assay [2], the “Initial HTS Run Visual Score” value was “Dead” and the “Initial HTS Run mOD” value is 231 mOD.
With `FC(F)(F)c1cccc(CNc2cc(Oc3ccccc3Cl)ncn2)c1` [AKC 383], in assay [1], the “5 Day Visual Score V6” value is given as “OK (no effect (˜1000+ progeny))”, the “5 Day Visual Score V5” value is “OK (no effect (˜1000+ progeny))”, the “5 Day Visual Score V4” value is “OK (no effect (˜1000+ progeny))” and the “5 Day Visual Score V3” value was “OK (no effect (˜1000+ progeny))”. In assay [1], the “5 Day Visual Score V2” value is given as “˜B (moderate broodsize (100-250 progeny))” and the “5 Day Visual Score V1” value is recorded as “L1”. For the same compound, in assay [2], the “Follow-up HTS Run % Run” value is on record as 110%, the “Follow-up HTS Run Visual Score” value is “L4/AD/B!”, the “Follow-up HTS Run mOD” value is on record as 149 mOD and the “Initial HTS Run % Run” value is reported as 132%. Further, in assay [2], the “Initial HTS Run Visual Score” value was 5AD/B and the “Initial HTS Run mOD” value worked out at 257 mOD.
As to `c1ccc2c(c1)CCN(c1cc(Oc3ccc4ccccc4c3)ncn1)C2` [AKC 342], in assay [1], the “5 Day Visual Score V6” value is recorded as “OK (no effect (˜1000+ progeny))”, the “5 Day Visual Score V5” value is “OK (no effect (˜1000+ progeny))” and the “5 Day Visual Score V4” value was “˜B (moderate broodsize (100-250 progeny))”. For the same compound, in assay [2], the “Follow-up HTS Run % Run” value turned out to be 92%, the “Follow-up HTS Run Visual Score” value is “B!-Healthy”, the “Follow-up HTS Run mOD” value amounted to 124 mOD and the “Initial HTS Run % Run” value was 106%. Also, in assay [2], the “Initial HTS Run Visual Score” value was “L4/AD/B!” and the “Initial HTS Run mOD” value is listed as 207 mOD.
With `NS(=O)(=O)c1ccc(NC(=O)CN2CCCC(NC(=O)c3cc4ccccc4o3)C2)cc1` (stereo not drawn) [AKC 348], in assay [1], the “5 Day Visual Score V6” value is given as “B (low broodsize (25-100 progeny))”, the “5 Day Visual Score V5” value is recorded as “< (reduced broodsize (250-500 progeny))”, the “5 Day Visual Score V3” value was “Dead” and the “5 Day Visual Score V2” value is “Dead”. In addition, the “5 Day Visual Score V1” value in assay [1] is recorded as “Dead”. Further, in assay [2], the “Follow-up HTS Run % Run” value was determined as 123%, the “Follow-up HTS Run mOD” value worked out at 166 mOD, the “Initial HTS Run % Run” value came to 126% and the “Initial HTS Run Visual Score” value was “Dead”. Moreover, in assay [2], the “Initial HTS Run mOD” value was 246 mOD.
`FC(F)(F)c1ccccc1CNc1cc(Oc2ccc(-c3ccccc3)cc2)ncn1` [AKC 339]: in assay [1], the “5 Day Visual Score V6” value was “OK (no effect (˜1000+ progeny))”, the “5 Day Visual Score V5” value is reported as “OK (no effect (˜1000+ progeny))”, the “5 Day Visual Score V4” value is “OK (no effect (˜1000+ progeny))” and the “5 Day Visual Score V3” value was “OK (no effect (˜1000+ progeny))”. In addition, in assay [1], the “5 Day Visual Score V2” value was “OK (no effect (˜1000+ progeny))” and the “5 Day Visual Score V1” value is recorded as “OK (no effect (˜1000+ progeny))”. Besides, in assay [2], the “Follow-up HTS Run % Run” value amounted to 113%, the “Follow-up HTS Run Visual Score” value is listed as “B (low broodsize (25-100 progeny))”, the “Follow-up HTS Run mOD” value was 153 mOD and the “Initial HTS Run % Run” value came out at 142%. For the same compound, in assay [2], the “Initial HTS Run Visual Score” value amounted to 1AD/B and the “Initial HTS Run mOD” value turned out to be 277 mOD.
